From a melting point compilation (Tetko et al.; mined from patent text by program, amines drawn as free bases though some values may be those of a salt) come the findings set out here.

In turn, `COc1ccc(-c2nnc(S)nc2-c2ccc(OC)cc2)cc1` yielded a melting point of 228 to 232 °C.
As to `COc1ccc(Cc2oc3ccc(OC)cc3c2CC#N)cc1`, the melting point stood at 83 °C.
The compound `CCc1cc(Br)c2c(c1)NC(=O)C2=O` came in with a melting point of 219 to 220 °C.
In the case of `CC(C)(C)OC(=O)Nc1ccc(-c2cccc3ccccc23)cc1[N+](=O)[O-]`, the melting point lay in the range of 60 to 66 °C.
For the compound `COc1cc2nc(N3CCNCC3)nc(N)c2cc1OC`, the melting point fell in the range of 224 to 228 °C.
Compound `COc1c2c(c(OC)c(OC)c1OC)CCC(CCn1cnc3ccccc31)CC2` came in with a melting point of 121 to 123 °C.
As for `COC(=O)CCCCc1ccc(CCNC(C)=O)cc1`, the melting point fell in the range of 57 to 59 °C.
For the compound `CCOc1cc(OC)cc(OC(=O)CC)c1C(=O)C=Cc1ccc(OC)cc1`, the melting point came to 77.5 °C.
As for `Cc1ccc(-c2cccc(/C=C/C(=O)Nc3ccc(CN4CCCC(O)C4)cc3)c2)cc1` (stereo unspecified), the melting point fell in the range of 132 to 134 °C.
As for `CN1CCN(C2CC3C4CCC5CC6OC6CC5(C)C4CCC3(C)C2O)CC1` (stereo unspecified), the melting point was 149 to 153 °C.
Turning to `NC(=S)c1[nH]c2ccc(Cl)cc2c1S(=O)(=O)c1ccccc1`, the melting point is 207 to 210 °C.
`O=C1OCCC12Oc1ccc([N+](=O)[O-])cc1C2=O` (stereo unspecified) showed a melting point of 199 to 200 °C.
Compound `O=c1[nH]nc2c3c(cccc13)Oc1ccc(COP(=O)(OCc3ccccc3)OCc3ccccc3)cc1-2` had a melting point of 223 to 225 °C.
Regarding `CCCCOC(=O)NCc1nc(-c2ccc3c(c2)Nc2ccccc2S3)cs1`, the melting point is 186 to 188 °C.
Compound `Cc1cccc2c(Nc3cccc(OCCCCN(CCCl)CCCl)c3)c3cccc(C(=O)NCCN(C)C)c3nc12` came in with a melting point of 131 to 132 °C.
Compound `CCc1oc2ccccc2c1C(=O)c1ccc(OC)cc1` came in with a melting point of 81 °C.
The value for `CCCCCC/C=C/c1cccc(CCC(COC(C)=O)(COC(C)=O)NC(C)=O)c1` was 84 to 86 °C; that for `CC(=O)c1ccc(OCCCC(=O)O)c(C)c1` was 114 to 116 °C; that for `COc1ccc(-c2coc(C(=O)O)cc2=O)cc1` was 232 to 234 °C.
Compound `CC[C@H](Cn1cnnn1)n1cnc2cc3c(=O)n([C@H](CC)Cn4cnnn4)nnc3cc2c1=O` gave a melting point of 80 to 81 °C.
As to `OCC1Cc2c(c(Cl)cc3c(-c4ccccc4F)noc23)O1` (stereo unspecified), the melting point was 136 to 139 °C.
For the compound `CC(C)(C)OC(=O)N1[C@@H](C(=O)O)C[C@H](S(=O)(=O)c2ccccc2)[C@H]1c1ccccc1F` (racemic), the melting point stood at 186 °C.
For the compound `CC(=O)Nc1ccc2c(c1)CC(CN1CCC(c3c[nH]c4cc(Cl)ccc34)CC1)C2` (stereo unspecified), the melting point lay in the range of 151 to 152 °C.
In the case of `CN(C)C1(Cc2ccccc2)CCC(O)(c2cc3ccccc3o2)CC1` (stereo unspecified), the melting point fell in the range of 121 to 124 °C.
For the compound `Cn1nnc(-c2ccc3c(c2)c(C2CCN(CCN4CCNC4=O)CC2)cn3-c2ccncc2)n1`, the melting point was 204 to 206 °C.
`CC(=O)c1ccccc1NC(C(N)=O)c1c(Cl)cccc1Cl` (stereo unspecified) gave a melting point of 169 °C.
Compound `Cc1c(NC(=O)c2ccc(-c3ccc4c(c3)OCCO4)cc2)ccc2cc(CN3CCCC3)cnc12` showed a melting point of 187 to 188 °C.
With `O=C(O)Cc1ccc(N(C(=O)C(COC2CCCCO2)NS(=O)(=O)c2ccc3ccccc3c2)c2ccc(CC(=O)O)cc2)cc1` (racemic), the melting point lay within 130 to 140 °C.
Turning to `CCCNCCC(=O)Nc1ccc2c(c1)C(=O)c1cc(NC(=O)CCNCCC)ccc1C2=O`, the melting point is 170 °C.
Under `CC(CC1=C(c2cccc(O)c2)CCCNC1=O)N1CCCCC1` (stereo unspecified) stands 218 to 220 °C; under `O=C(Oc1n[nH]c(=O)c2nc3cc(Cl)ccc3c(O)c12)c1ccccc1`, 348 to 353 °C.
The value for `Cn1c2ccc(Cl)cc2c2c3ccccc3c(OCCN3CCOCC3)nc21` was 140 to 142 °C.
The compound `O=C(O)C(CCc1ccccc1)(CCc1ccccc1)C(=O)O` displayed a melting point of 168 to 172 °C.
The value for `CC(C)(C)c1cc(CCc2ccccc2NC(=O)N2CCOCC2)cc(C(C)(C)C)c1O` was 186 to 189 °C; that for `CCn1nc(C)c2c(NCc3ccccc3)c3ccccc3nc21` was 228 to 231 °C.
`CN1CCN(c2ncc(-c3cnc4c(c3)N(Cc3c(F)ccc(F)c3Cl)CCN4)cn2)CC1` had a melting point of 194 to 195 °C.
`COC(=O)N1CC(Cc2ccc(OC)c(OC3CCCC3)c2)N(C(=O)OC)C1=O` (stereo unspecified) returned a melting point of 138 to 140 °C.
As for `C=CCOc1ccc(CC(NC(O)OC(C)(C)C)C(=O)NC(C(=O)NC(C=C)C(=O)OC)C(C)C)cc1` (stereo unspecified), the melting point lay within 104 to 106 °C.
On to `C=CCc1ccc(OCc2ccc(OC)cc2)cc1`, for which the melting point is 59 to 61 °C.
The value for `CN(C)C=C(C#N)S(=O)(=O)c1ccccc1` was 108 to 110 °C.
As to `COc1cc(C2=NC(C)(C)CO2)cc(OC)c1SC`, the melting point lay within 82.5 to 84.5 °C.
The value for `Clc1nn2c(-c3ccccc3)nnc2c2ccccc12` was 172 to 174 °C; that for `Cc1cccc2c1sc1nc(C(F)(F)F)nn12` was 80 to 81 °C; that for `Nc1nc2c(c(Nc3cccc(F)c3)n1)-c1ccccc1C2` was 199 to 200 °C.
In turn, `CCCCCCCCCCCCc1ccc(CO)cc1` had a melting point of 44 to 45 °C.
For `CCOC(=O)Cn1c2ccccc2c2sccc(=O)c21`, the melting point was 163 to 165 °C.
The compound `COc1cc(-c2cnc3[nH]cc(C(=O)N4CCCC4)c3n2)cc(OC)c1OC` gave a melting point of 210 to 212 °C.
On to `Cc1cc(-c2noc(C(F)(F)F)n2)cc(C)c1OCCCc1cncs1`, for which the melting point was 95 to 97 °C.
Under `O=C1Nc2ccccc2CO1` stands 118 to 119 °C; under `CCOP(=O)(OCC)c1ccc(NC(=O)C2Cc3c(cccc3C(C)C)C(=O)CS2(=O)=O)cc1` (stereo unspecified), 229 to 230 °C; under `CN(CCOc1ccccc1)[C@H]1CC[C@H](c2ccc(OCc3ccccc3)cc2)CC1`, 67 to 69 °C.
The value for `CS(=O)(=O)c1ccc(C(CC2CCCC2)C(=O)Nc2ccncn2)cc1[N+](=O)[O-]` (stereo unspecified) was 91 to 95 °C; that for `CCN(CC)CCc1cccc(Nc2ncc3c(n2)N(c2cccc(C#N)c2)C(=O)N(c2ccc(OC)cc2)C3C)c1` (stereo unspecified) was 128 to 145 °C.
`CCOC(=O)c1cc2c(nc1C)C(=Cc1cccs1)CCC2` returned a melting point of 117 to 118 °C.
The value for `COc1ccc(COc2cccc(C(=O)Nc3ccc(C#N)cn3)c2)cc1` was 132 to 134 °C.
Consider `COc1ccc2c(c1)C(C)CC1C2CCC2(C)C(=O)CCC12` (stereo unspecified), for which the melting point was in the range of 108 to 109 °C.
With `CCOC(=O)C=CC=Cc1ccc(OC)c(C)c1C`, the melting point was in the range of 92 to 95 °C.
The value for `CCCCC(=O)Cc1ccc(C(=O)Nc2ccc3cc(CN4CCCC4)cnc3c2C)cc1` was 156 °C; that for `Cc1ccc2cc(NS(=O)(=O)c3cc(Cl)ccc3Cl)ccc2n1` was 125 °C; that for `COc1ccc(SSc2ccc(OC)cc2C(=O)NC(CC(C)C)C(=O)O)c(C(=O)NC(CC(C)C)C(=O)O)c1` (stereo unspecified) was 168 to 169 °C.
Consider `O=S1(=O)N=C(NC2CCCC2)Nc2sc(Cl)cc21`, for which the melting point fell in the range of 280 to 282 °C.
Compound `FC(F)(F)c1cc(Nc2nc3ccccc3o2)cc(C(F)(F)F)c1` yielded a melting point of 178 to 180 °C.
For the compound `Cn1cc(C=O)c2cccc(F)c21`, the melting point lay in the range of 92 to 94 °C.
Under `N#Cc1cccc2c1OCC2` stands 54.5 to 56 °C.
In turn, `Cc1ccc(S(=O)(=O)Cc2c(C#N)nn(-c3ccccc3)c2O)cc1` gave a melting point of 214 °C.
Compound `NS(=O)(=O)c1ccc([C@H]2[C@H](C(=O)Nc3ccc(C(F)(F)F)cc3Cl)C23CCCC3)cc1` (relative stereo) registered a melting point of 111 to 113 °C.
As to `CC(C)(C)OC(=O)NN(Cc1cc(F)cc(F)c1)C(N)=O`, the melting point was 129 to 130 °C.
With `CCCc1nn(C)c2c(=O)[nH]c(-c3cc(S(=O)(=O)N4C[C@@H](C)N[C@@H](C)C4)ccc3OCC)nc12`, the melting point lay in the range of 202 to 203 °C.
The value for `CCOC(=O)c1nn(-c2ccc(Br)cc2)c(=O)c2c(N)scc12` was 198 to 200 °C.
The compound `CCOc1cc(CCNC(=S)Nc2nccs2)ccc1OC` returned a melting point of 150 to 152 °C.
Regarding `CCOP(=O)(Cc1nnc2c(=O)[nH]c3cc(C(F)(F)F)c([N+](=O)[O-])cc3n12)OCC`, the melting point fell in the range of 222 to 228 °C.
Regarding `Cc1ccc(-n2c(=O)[nH]c3ccccc3c2=O)cc1`, the melting point came to 267 °C.
Compound `CC1(C)CC(c2ccccn2)c2cc(C(N)=O)ccc2O1` (stereo unspecified) showed a melting point of 96 to 98 °C.
In turn, `CC(C)(CN(Cc1ccccc1)C(=O)CCC(=O)O)SN=O` displayed a melting point of 95 to 98 °C.
Compound `NC(=O)c1ccccc1N1CCN(CC[C@H]2OCCc3ccccc32)CC1` returned a melting point of 157 to 158 °C.
`O=C1C=CC2=CN=C(C3CCCCC3)N3CCC(=C23)N1`: the melting point was 265 to 266 °C.
Under `COc1cc(OCC(=O)O)c(C)cc1SCc1sc(-c2ccc(C(F)(F)F)cc2)nc1C` stands 211 to 213 °C.
`CN1C(=O)CC[C@]2(C)c3ccc(-c4ccc(C(C)(C)C)cc4)cc3CC[C@@H]12`: the melting point was in the range of 141 to 147 °C.
With `CN(CCCCc1ccc(NC(=O)c2cccc3c(=O)c4ccccc4[nH]c23)cc1)Cc1ccc(F)cc1`, the melting point was found to be 151 °C.
Regarding `CCOC(=O)c1cn(CCO)c2nc(N3CCN(C(=O)OCC)CC3)c(F)cc2c1=O`, the melting point was in the range of 215 to 217 °C.
In turn, `COc1nc(C)c(C)nc1NC(=O)N1CCN(c2cc(F)cc(F)c2)CC1` yielded a melting point of 153 to 154 °C.
Under `CC(NC(=O)N(C)O)c1ccc(OCc2ccccc2)cc1` (stereo unspecified) stands 105 to 106 °C.
The compound `CCOc1ccc(S(=O)(=O)N2CCN(C)CC2)cc1-c1nc2cccnc2c(=O)[nH]1` came in with a melting point of 212 to 215 °C.
The value for `COc1cc(OC)nc(NC(=O)NS(=O)(=O)c2c(Cl)cccc2Cn2cncn2)n1` was 220 to 221 °C; that for `N#Cc1cc(N2CCN(CC[C@H]3CC[C@H](NS(=O)(=O)c4cccnc4)CC3)CC2)cc(C(F)(F)F)c1` was 194 to 195 °C.
`CCC1COC(NC(=O)c2ccc(Cl)c(Cl)c2)C2CCCCN12` (stereo unspecified) displayed a melting point of 214 °C.
